Assay results reported in patent US20230250077A1, “SULFONYLBENZAMIDE DERIVATIVE AND CONJUGATE THEREOF, PREPARATION METHOD THEREFOR AND USE THEREOF” (Jiangsu Hengrui Pharmaceuticals Co., Ltd., priority 2020, published 2023).
Marks after values point to notes of the source that are not given here.

Tests used:
SD rats = assay: Toxicity test on SD rats by repeated intravenous administrations for 7 days; format: in vivo, rat; conditions: 1 mg/kg intravenously qd
Experimental: This experiment was performed to evaluate the toxicity of compound 9 and AZD4320 to SD rats by repeated intravenous administrations for 7 days.
30 SD rats, weighing about 180-200 g and aged 6-7 weeks, half male and half female, purchased from Zhejiang Vital River Laboratory Animal Technology Co., Ltd., SPF grade. Animal certification number: 200917Aazz0619000298 and 20200917Aazz0619000104. Production license number: SCXK (Zhejiang) 2019-0001.
Housing conditions: SPF grade, animals were housed in plastic and transparent rat cages, 2-3 per cage. The room temperature was 20-26° C. and the relative humidity was 40%-70%. The illumination was controlled in a 12/12 light/dark cycle. The granulated feed for mice was freely taken in an unlimited amount.
The rats were randomly divided into the following 3 groups: a vehicle control group, a compound 9-1 mg/kg group and a compound AZD4320-1 mg/kg group, with 6 rats in each group, half male and half female.
Dosage of the test sample for the 7-day toxicity test in rats: 1 mg/kg (qd), for 7 consecutive days. Administration route: intravenously, dosing volume: 10 mL/kg, dosing frequency and dosing period: daily in the morning for 7 days.
Vehicle: 1.5% DMA+98.5% (10% HS-15), wherein DMA is N,N-dimethylacetamide (Shanghai Titan Scientific Co., Ltd., Cat #01013630); and HS-15 is polyethylene glycol stearate 15 (Solutol HS15) (Shanghai Xietai Chemical Co., Ltd., Cat #50253404).
Hitachi 7100 automatic biochemical analyzer
Siemens advia 2120i automatic blood cell analyzer
Sysmex ca1500 automatic coagulation analyzer
The detection results were input and statistically processed by Excel of the computer.
Clinical symptoms, food intake and general visual observation results of dissection were not statistically calculated, and indexes such as body weight, organ weight and clinical examination were counted by using T-test.
SD rats were intravenously administered with 1 mg/kg compound 9 or 1 mg/kg AZD4320 at 5 mL/kg for 7 repeated days.

[1] = Pharmacokinetic evaluation in mice (iv, LC/MS/MS plasma); format: in vivo; conditions: C57 mice, female, intravenous administration, dose 1 mg/kg (table)
Experimental: The drug concentration in the plasma of the test animals (mice) at different time points after intravenous (iv) administration of compound 10 and AZD4320 was determined by an LC/MS/MS method. The pharmacokinetic behavior of the compounds of the present disclosure in mice was studied and their pharmacokinetic profile was valuated.
18 C57 mice, female, randomly divided into 2 groups, purchased from Zhejiang Vital River Laboratory Animal Technology Co., Ltd, animal production license number: SCXK (Shanghai) 2017-0005.
A certain amount of compound 10 was weighed, dissolved by adding 5% by volume of DMSO and 5% Tween 80 (Shanghai Titan Scientific Co., Ltd.), and then prepared into a 0.1 mg/mL clear solution by adding 90% normal saline. Compound AZD4320 was formulated as with compound 10. […]
(§1) The mice were intravenously administered with compound 10, and 0.1 mL of blood was collected before the administration and 5 min, 0.25 h, 0.5 h, 1.0 h, 2.0 h, 4.0 h, 8.0 h, 11.0 h and 24.0 h after the administration, put into an EDTA-K2 anticoagulation tube, centrifuged at 10,000 rpm for 1 min (4° C.). Plasma was separated within 1 hour, and stored at −20° C. for testing. The process from blood collection to centrifugation was performed under an ice bath.
as §1, with “compound AZD4320,” for “compound 10,”
The content of the test compounds at different concentrations in plasma of mice after the administration was determined: 10 μL of plasma of mice at each time point after the administration was mixed with 200 μL of methanol (containing an internal standard solution camptothecin (100 ng/mL)); the mixture was vortexed for 1 min, and centrifuged for 10 min (18,000 r/min), and 3 μL of supernatant was taken for LC/MS/MS analysis.

BCL-xL = target: T1, BCL-xL (Homo sapiens, UniProt Q07817); assay: Binding activity for BCL-xL (HTRF, biotin-labeled BIM); conditions: His-tagged BCL-xL
T1 construct: purchased R&D 894-BX-050
T1 sequence (Q07817 whole entry): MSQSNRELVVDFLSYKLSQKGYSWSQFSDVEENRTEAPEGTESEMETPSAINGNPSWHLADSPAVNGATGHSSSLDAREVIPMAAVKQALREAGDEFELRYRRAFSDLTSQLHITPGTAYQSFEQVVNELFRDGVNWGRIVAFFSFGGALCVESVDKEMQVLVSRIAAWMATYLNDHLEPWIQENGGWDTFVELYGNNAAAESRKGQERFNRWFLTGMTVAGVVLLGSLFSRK
Experimental: In vitro BCL-xL-binding activity was tested by the following method.
Reagents used in this experiment: His-tagged BCL-xL protein (R&D, Cat #894-BX-050); biotin-labeled BIM protein (R&D, Cat #3526/1); binding buffer (cisbio, Cat #62DLBDDF); assay buffer (cisbio, Cat #62DB1FDG); MAb anti-6His-Eu cryptate (cisbio, Cat #61HI2KLA); and affinity streptomycin linked XL665 (cisbio, Cat #611SAXLA).
The in vitro binding assay described below can determine the binding activity of test compounds for BCL-xL.
The test compounds were dissolved in dimethyl sulfoxide and diluted to gradient concentrations as required for the experiment, and the compounds at various concentrations formulated in dimethyl sulfoxide were subjected to a 100-fold dilution with a binding buffer. BCL-xL was diluted to the corresponding concentration with a binding buffer, and added to a white 384-well plate at 4 μL/well. Then the diluted test compound was added to the white 384-well plate at 2 μL/well. The plate was incubated at 25° C. for 1 h after the mixture was uniformly mixed. Biotin-labeled BIM protein was diluted to the corresponding concentration with a binding buffer, and added to a white 384-well plate at 4 μL/well. The plate was incubated at 25° C. for 2 h after the mixture was uniformly mixed. The MAb anti-6His-Eu cryptate and the affinity streptomycin linked XL665 were each diluted to the corresponding concentration with an assay buffer, and added to a white 384-well plate at 5 μL/well. The plate was incubated at 25° C. for 2-4 h after the mixture was uniformly mixed. The signal values were read with the HTRF program in a microplate reader (BMG Labtech, model: PHERAstar FS).

BCL-2 = target: T2, BCL-2 (Homo sapiens, UniProt P10415); assay: Binding activity for BCL-2 (HTRF, biotin-labeled BIM); conditions: His-tagged BCL-2, biotin-labeled BIM
T2 construct: purchased R&D systems 827-BC-050
T2 sequence (P10415 whole entry): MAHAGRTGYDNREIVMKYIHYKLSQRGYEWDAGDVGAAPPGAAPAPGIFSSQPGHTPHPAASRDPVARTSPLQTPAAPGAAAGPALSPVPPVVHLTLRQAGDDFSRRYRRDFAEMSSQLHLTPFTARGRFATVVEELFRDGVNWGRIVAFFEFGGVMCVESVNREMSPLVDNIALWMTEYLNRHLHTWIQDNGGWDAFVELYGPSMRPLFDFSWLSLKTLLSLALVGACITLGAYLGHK
Experimental: In vitro BCL-2-binding activity was tested by the following method.
Reagents used in this experiment: His-tagged BCL-2 protein (R&D systems, Cat #827-BC-050); biotin-labeled BIM protein (R&D, Cat #3526/1); binding buffer (cisbio, Cat #62DLBDDF); assay buffer (cisbio, Cat #62DB1FDG); MAb anti-6His-Eu cryptate (cisbio, Cat #61HI2KLA); and affinity streptomycin linked XL665 (cisbio, Cat #611SAXLA).
The in vitro binding assay described below can determine the binding activity of test compounds for BCL-2.
The test compounds were dissolved in dimethyl sulfoxide and diluted to gradient concentrations as required for the experiment, and the compounds at various concentrations formulated in dimethyl sulfoxide were subjected to a 100-fold dilution with a binding buffer. BCL-2 was diluted to the corresponding concentration with a binding buffer solution, and added to a white 384-well plate at 4 μL/well. Then the diluted test compound was added into the white 384-well plate at 2 μL/well. The plate was incubated at 25° C. for 1 h after the mixture was uniformly mixed. Biotin-labeled BIM protein was diluted to the corresponding concentration with a binding buffer, and added to a white 384-well plate at 4 μL/well. The plate was incubated at 25° C. for 2 h after the mixture was uniformly mixed. The MAb anti-6His-Eu cryptate and the affinity streptomycin linked XL665 were each diluted to the corresponding concentration with an assay buffer, and added to a white 384-well plate at 5 μL/well. The plate was incubated at 25° C. for 2-4 h after the mixture was uniformly mixed. The signal values were read with the HTRF program in a microplate reader (BMG Labtech, model: PHERAstar FS).

RS4;11 cells = assay: Inhibition of proliferation of RS4;11 cells (CellTiter-Glo); format: cell-based; conditions: Homo sapiens, 72 h, 3 days, read-out: Inhibitory activity IC50 (nM) for the proliferation of RS4;11 cells
Experimental: (§2) In vitro inhibitory activity for the proliferation of RS4;11 cells and NCI-H146 cells was tested by the following method.
(§3) Reagents used in this experiment: RPMI-1640 medium (HyCLone, Cat #SH30243018); fetal bovine serum (Gibco, Cat #10099-141); pancreatin (Gibco, Cat #25200-072); Cell Titer-Glo (Promega, Cat #G7571).
(§4) Materials used: RS4;11 cells (Nanjing Kebai Biotechnology Co., Ltd, Cat #CBP60641); and NCI-H146 cells (ATCC, Cat #HTB-173).
(§5) The in vitro cell proliferation assay described below can determine the inhibitory activity of the test compounds for the proliferation of RS4;11 cells and NCI-H146 cells.
(§6) RS4;11 cells (or NCI-H146 cells) were cultured in an RPMI-1640 culture medium containing 10% FBS, and were passaged for 2-3 times a week in a passage ratio of 1:3 or 1:5. During passage, the cells were transferred to a centrifuge tube, and centrifuged at 1200 rpm for 3 min. The supernatant was discarded, and fresh culture medium was added to resuspend the cells. 90 μL of cell suspension was added to a 96-well cell culture plate, wherein RS4;11 cells and NCI-H146 cells were added at a density of 2.22×10^5 cells/mL. Only 100 μL of complete medium (RPMI-1640 medium containing 10% FBS) was added to the periphery of the 96-well plate. The plate was incubated in an incubator for 24 h (37° C., 5% CO2).
(§7) The test sample was diluted to a proper concentration gradient with dimethyl sulfoxide as required for the experiment. 5 μL of the solution of the test compound prepared in a gradient concentration was added to 95 μL of fresh culture medium and mixed uniformly, and then 10 μL of the culture medium containing the above compound was added to a cell culture plate. The cell culture plate was incubated in an incubator for 3 days (37° C., 5% CO2). 50 μL of CellTiter-Glo reagent was added into each well of the 96-well cell culture plate. The plate was let stand for 5-10 min away from the light at room temperature. The chemiluminescence signals were read by a microplate reader (BMG Labtech, model: PHERAstar FS) and the data were processed by GraphPad software.

NCI-H146 cells = assay: Inhibition of proliferation of NCI-H146 cells (CellTiter-Glo); format: cell-based; conditions: Homo sapiens, 72 h, 3 days, read-out: Inhibitory activity IC50 (nM) for the proliferation of NCI-H146 cells
Experimental: as §2, §3, §4, §5, §6, §7

Row | SMILES | PLT (10^9/L) (SD rats) | Effect on platelets (in words) (SD rats; vs vehicle control) | Clearance CLz/F [1] [mL/min/kg] | AUC(0-t) ([1]; mouse, plasma, read-out: Area under curve AUC0-t) [ng·h/mL] | half-life ([1]; mouse, plasma, read-out: Half-life T½ (converted)) [h] | MRT inf ([1]; mouse, plasma, read-out: Mean retention time MRT 0-∞) [h] | concentration at 5 min ([1]; mouse, plasma, read-out: Plasma Concentration C5 min) [ng/mL] | Ki (BCL-xL) [nM] | Ki (BCL-2) [nM] | IC50 (RS4;11 cells) [nM] | IC50 (NCI-H146 cells) [nM]
1 | CN(CCO)CC[C@H](CSc1ccccc1)Nc1ccc(S(=O)(=O)NC(=O)c2ccc(N3CCC([C@@H](O)c4ccccc4-c4ccc(Cl)cc4)CC3)cc2)cc1S(=O)(=O)C(F)(F)F [AZD4320, reference compound] | 807.50** 10^9/L | more significantly reduced | 72.7 | 206 | 3.1 | 2.4 | 436 |  |  |  | 
2 | O=C(NS(=O)(=O)c1ccc(N[C@@H](CSc2ccccc2)C[C@@H]2CCCN2CCO)c(S(=O)(=O)C(F)(F)F)c1)c1ccc(N2CCC([C@@H](O)c3ccccc3-c3ccc(C(F)(F)F)cc3)CC2)cc1 [Example 2-13, 4-(4-((R)-hydroxy(4′-(trifluoromethyl)-[1,1′-biphenyl]-2-yl)methyl)piperidin-1-yl)-N-((4-(((R)-1-((S)-1-(2-hydroxyethyl)pyrrolidin-2-yl)-3-(phenylthio)propan-2-yl)amino)-3-((trifluoromethyl)sulfonyl)phenyl)sulfonyl)benzamide] |  |  |  |  |  |  |  | 0.3 | 0.04 | 7 | 35
